These compounds were tested on 293T cells (assay: SamRNA-LUC transfection efficiency of LNPs by plate reader (luminescence)). Details: LNP-SamRNA-Luc formulated with the lipid, incubated overnight, FIG. 11.
Assay type: cell-based
Protocol: (§1) The LNPs containing SamRNA-GFP (or SamRNA-LUC, 100 ng/well) were added into 96-well plate which was pre-seeded with 293T, C2C12 or MC38 cells. After 24 hours incubation at 37° C. and 5% CO2, the luciferase SamRNA transfection efficiency was measured by plate reader (Perkin Elmer Envision 2104). The GFP SamRNA transfection efficiency was measured by flow cytometry (BD FACSymphony™ A5 SE Cell Analyzer).

Structure (SMILES)	bioluminescence signals compared with MC3-LNP-SamRNA-Luc
CCCCCCCCCCCCCCCCC(=O)N(C(CCCCCCC)CCCCCCC)C(C(=O)NC12CC3CC(CC(C3)C1)C2)C1CCN(CC)CC1 (centres unmarked) [P56B1, N-(2-(((1s,3s)-adamantan-1-yl)amino)-1-(1-ethylpiperidin-4-yl)-2-oxoethyl)-N-(pentadecan-8-yl)heptadecanamide]	stronger bioluminescence signals than MC3-LNP-SamRNA-Luc
CCCCCCCCCCCCCCCCCC(=O)N(C(CCCCCCC)CCCCCCC)C(CC1CCN(C)CC1)C(=O)NC1CCCCC1 (centres unmarked) [P30C7, N-(1-(cyclohexylamino)-3-(1-methylpiperidin-4-yl)-1-oxopropan-2-yl)-N-(pentadecan-8-yl)stearamide]	stronger bioluminescence signals than MC3-LNP-SamRNA-Luc
CCCCCCCCCCCCCC(=O)N(C(CCCCCCC)CCCCCCC)C(CC1CCN(C)CC1)C(=O)NC1CCCCCC1 (centres unmarked) [P38D7, N-(1-(cycloheptylamino)-3-(1-methylpiperidin-4-yl)-1-oxopropan-2-yl)-N-(pentadecan-8-yl)tetradecanamide]	stronger bioluminescence signals than MC3-LNP-SamRNA-Luc
CCCCCCCCC(CCCCCCCC)N(C(=O)CCCCCCC)C(C(=O)NCCCC)C1CCN(CC)CC1 (centres unmarked) [P14A2, N-(2-(butylamino)-1-(1-ethylpiperidin-4-yl)-2-oxoethyl)-N-(heptadecan-9-yl)octanamide]	stronger bioluminescence signals than MC3-LNP-SamRNA-Luc
CCCCCCCCCCCCCCCC(=O)N(C(CCCCCCCC)CCCCCCCC)C(C(=O)NC1=CCCCC1)C1CCN(CC)CC1 (centres unmarked) [P6A2, N-(2-(cyclohex-1-en-1-ylamino)-1-(1-ethylpiperidin-4-yl)-2-oxoethyl)-N-(heptadecan-9-yl)palmitamide]	stronger bioluminescence signals than MC3-LNP-SamRNA-Luc
CCCCCCCCCCCCC(CCCCCCCCCC)CN(C(=O)CCCCCCCCC)C(C(=O)NC(C)(C)C)C1CCN(CC)CC1 (centres unmarked) [P53A6, N-(2-(tert-butylamino)-1-(1-ethylpiperidin-4-yl)-2-oxoethyl)-N-(2-decyltetradecyl)decanamide]	stronger bioluminescence signals than MC3-LNP-SamRNA-Luc
CCCCCCCCCCCCC(=O)N(CC(CCCCCCCCCC)CCCCCCCCCCCC)C(CC1CCN(C)CC1)C(=O)NC(C)(C)C (centres unmarked) [P51C12, N-(1-(tert-butylamino)-3-(1-methylpiperidin-4-yl)-1-oxopropan-2-yl)-N-(2-decyltetradecyl)tridecanamide]	stronger bioluminescence signals than MC3-LNP-SamRNA-Luc
CCCCCCCCCCCCCCCC(=O)N(C(CCCCCCC)CCCCCCC)C(C(=O)NC1CCCCC1)C1CCN(CC)CC1 (centres unmarked) [P30A1, N-(2-(cyclohexylamino)-1-(1-ethylpiperidin-4-yl)-2-oxoethyl)-N-(pentadecan-8-yl)palmitamide]	stronger bioluminescence signals than MC3-LNP-SamRNA-Luc
CCCCCCCCCCCCCC(=O)N(CC(CCCCCCCC)CCCCCCCCCC)C(C(=O)NC1CCCCC1)C1CCN(CC)CC1 (centres unmarked) [P26D4, N-(2-(cyclohexylamino)-1-(1-ethylpiperidin-4-yl)-2-oxoethyl)-N-(2-octyldodecyl) tetradecanamide]	stronger bioluminescence signals than MC3-LNP-SamRNA-Luc
CCCCCCCCCCCCC(=O)N(C(CCCCCCC)CCCCCCC)C(C(=O)NCC(=O)OCC)C1CCN(CC)CC1 (centres unmarked) [P1C1, Ethyl (2-(1-ethylpiperidin-4-yl)-2-(N-(pentadecan-8-yl)tridecanamido)acetyl)glycinate]	stronger bioluminescence signals than MC3-LNP-SamRNA-Luc
CCCCCCCCCCC(=O)N(CC(CCCCCCCC)CCCCCCCCCC)C(CC1CCN(C)CC1)C(=O)NC1CCCCCC1 (centres unmarked) [P40B10, N-(1-(cycloheptylamino)-3-(1-methylpiperidin-4-yl)-1-oxopropan-2-yl)-N-(2-octyldodecyl)undecanamide]	stronger bioluminescence signals than MC3-LNP-SamRNA-Luc
CCCCCCCCCCCC(CCCCCCCCCCC)N(C(=O)CCCCCCCCC)C(C(=O)NC(C)(C)C)C1CCN(CC)CC1 (centres unmarked) [P53A5, N-(2-(tert-butylamino)-1-(1-ethylpiperidin-4-yl)-2-oxoethyl)-N-(tricosan-12-yl)decanamide]	stronger bioluminescence signals than MC3-LNP-SamRNA-Luc
CCCCCCCCCCCCCC(=O)N(CC(CCCCCCCC)CCCCCCCCCC)C(C(=O)NCC(=O)OCC)C1CCN(CC)CC1 (centres unmarked) [P1D4, Ethyl (2-(1-ethylpiperidin-4-yl)-2-(N-(2-octyldodecyl)tetradecanamido)acetyl)glycinate]	stronger bioluminescence signals than MC3-LNP-SamRNA-Luc
CCCCCCCCCCC(=O)N(C(CCCCCCC)CCCCCCC)C(C(=O)NCCCC)C1CCN(CC)CC1 (centres unmarked) [P16B1, N-(2-(butylamino)-1-(1-ethylpiperidin-4-yl)-2-oxoethyl)-N-(pentadecan-8-yl)undecanamide]	stronger bioluminescence signals than MC3-LNP-SamRNA-Luc
CCCCCCCCCCCCCC(=O)N(C(CCCCCCCC)CCCCCCCC)C(CC1CCN(C)CC1)C(=O)NC1CCCCCC1 (centres unmarked) [P38D8, N-(1-(cycloheptylamino)-3-(1-methylpiperidin-4-yl)-1-oxopropan-2-yl)-N-(heptadecan-9-yl)tetradecanamide]	stronger bioluminescence signals than MC3-LNP-SamRNA-Luc
CCCCCCCCCCCCCCCC(=O)N(C(CCCCCCC)CCCCCCC)C(C(=O)NC12CC3CC(CC(C3)C1)C2)C1CCN(CC)CC1 (centres unmarked) [P56A1, N-(2-(((1s,3s)-adamantan-1-yl)amino)-1-(1-ethylpiperidin-4-yl)-2-oxoethyl)-N-(pentadecan-8-yl)palmitamide]	stronger bioluminescence signals than MC3-LNP-SamRNA-Luc
CCCCCCCCCCCCC(CCCCCCCCCC)CN(C(=O)CCCCCCCCCC)C(C(=O)NC12CC3CC(CC(C3)C1)C2)C1CCN(CC)CC1 (centres unmarked) [P54B6, N-(2-(((1s,3s)-adamantan-1-yl)amino)-1-(1-ethylpiperidin-4-yl)-2-oxoethyl)-N-(2-decyltetradecyl)undecanamide]	stronger bioluminescence signals than MC3-LNP-SamRNA-Luc
CCCCCCCCCCCCCCC(=O)N(C(CCCCCCC)CCCCCCC)C(CC1CCN(C)CC1)C(=O)NC1CCCCCC1 (centres unmarked) [P40D7, N-(1-(cycloheptylamino)-3-(1-methylpiperidin-4-yl)-1-oxopropan-2-yl)-N-(pentadecan-8-yl)pentadecanamide]	stronger bioluminescence signals than MC3-LNP-SamRNA-Luc
CCCCCCCCCCCCCCCCC(=O)N(C(CCCCCCC)CCCCCCC)C(CC1CCN(C)CC1)C(=O)NC1CCCCC1 (centres unmarked) [P30B7, N-(1-(cyclohexylamino)-3-(1-methylpiperidin-4-yl)-1-oxopropan-2-yl)-N-(pentadecan-8-yl)heptadecanamide]	stronger bioluminescence signals than MC3-LNP-SamRNA-Luc
CCCCCCCCCCCC(=O)N(C(CCCCCCCCCCC)CCCCCCCCCCC)C(CC1CCN(C)CC1)C(=O)NC1CCCCCC1 (centres unmarked) [P40C11, N-(1-(cycloheptylamino)-3-(1-methylpiperidin-4-yl)-1-oxopropan-2-yl)-N-(tricosan-12-yl)dodecanamide]	stronger bioluminescence signals than MC3-LNP-SamRNA-Luc
CCCCCCCCCCCCCC(=O)N(C(CCCCCCC)CCCCCCC)C(C(=O)NC1CCCCCC1)C1CCN(CC)CC1 (centres unmarked) [P38D1, N-(2-(cycloheptylamino)-1-(1-ethylpiperidin-4-yl)-2-oxoethyl)-N-(pentadecan-8-yl)tetradecanamide]	stronger bioluminescence signals than MC3-LNP-SamRNA-Luc
CCCCCCCCCCCC(=O)N(CC(CCCCCCCC)CCCCCCCCCC)C(CC1CCN(C)CC1)C(=O)NC1CCCCCC1 (centres unmarked) [P40C10, N-(1-(cycloheptylamino)-3-(1-methylpiperidin-4-yl)-1-oxopropan-2-yl)-N-(2-octyldodecyl)dodecanamide]	stronger bioluminescence signals than MC3-LNP-SamRNA-Luc

What follows are compounds tested on 293T, C2C12 or MC38 cells (assay: SamRNA-GFP transfection efficiency of LNPs by flow cytometry). Details: LNP-SamRNA-GFP formulated with the lipid; FIGS. 4-6, 8-10.
Assay type: cell-based
Protocol: The delivery system used to deliver the GFP-mRNA transfect are LNPs formulated using 12 individual ionizable lipids synthesized by three-component reactions. To generate the LNP encapsulated self-amplifying mRNA, the ionizable lipids of the present disclosure were dissolved in ethanol and directly added into an ethanol solution containing DOPE, cholesterol and DMG-PEG2000 at predetermined molar ratio. Self-amplifying mRNA encoding GFP sequences aqueous solution was mixed and the LNP mixture (100 ng mRNA) was added to a 96-well plate pre-seeded with MC38, C2C12 or 293T cells. The cells were incubated at 5% CO2 and 37° C. overnight. The GFP mRNA transfection efficiency was measured by flow cytometry.
E6, an ionizable lipid of the disclosure, was formulated into LNPs with 1,2-Dioleoyl-sn-glycero-3-phosphoethanolamine (DOPE), cholesterol (Chol), methoxypolyethylene glycol (DMG-PEG2000) with a mole ratio of 50/10/38.5/1.5 (ionizable lipid/DOPE/Chol/DMG-PEG2000) encapsulated self-amplifying mRNA or DNA encoding with reporter genes either green fluorescent protein (samRNA-GFP or DNA-CMV-EGFP) or firefly Luciferase (samRNA-LUC). Formulations containing 100 ng of self-amplifying mRNA were incubated to a well of 96-well plate with 60-70% confluent of HEK293, or C2C12, or MC38 cells (FIGS. 10, 23). The transfection efficiency was determined by flow cytometry for detection of GFP, or plate reader for detection of luciferase. LNP formulated using FDA approved ionizable lipid MC3 was used as a control (FIG. 10).
as §1

Structure (SMILES)	delivery of mRNA-GFP compared with FDA approved ionizable lipid MC3
CCCCCCCCN(CCCCCCCC)C(c1ccc(C(c2ccccc2O)N(CCCCCCCC)CCCCCCCC)cc1)c1ccccc1O (centres unmarked) [TP1A11, 2,2′-(1,4-phenylenebis((dioctylamino)methylene))diphenol]	more effectively deliver mRNA-GFP

Reference: patent US12655114B2, “Ionizable lipid compounds and lipid nanoparticle compositions” (SunVax mRNA Therapeutics Inc., priority 2022, dated 2026)
